System: LG0567-F671-PDC KRAS tumor spheroid viability
Assay: Anticancer human tumor LG0567-F671-PDC patient-derived lung adenocarcinoma cell line growth inhibition [KRAS2]
Details: spheroids with HUVEC and MSC; for viability, T/C: stronger effect = lower value
Excerpt: Multicellular complex tumor spheroid response to RAS pathway inhibitors in combination with a targeted agents in patient-derived cell lines with oncogenic KRAS variants from multiple cancer types
A high-throughput screen of multi-cell type tumor spheroids was designed to identify active combinations of targeted small molecules and KRAS pathway inhibitors. Complex spheroids include a stromal component modeled by human endothelial cells (HUVEC) and fibroblasts modeled by human mesenchymal stem cells (MSCs). The concentration ranges selected for each drug and investigational agent were based upon clinically achievable concentrations if the clinical Cmax of the agent was known.
Compounds. The drugs and investigational agents: BI-3406 (NSC825286), BAY-293 (NSC824723), batoprotafib (TNO155; NSC825523), sotorasib (AMG 510; NSC818433), MRTX1257 (NSC819558), elimusertib (BAY 1895344; NSC800525), molibresib (GSK525762; NSC774829), temuterkib (LY3214996; NSC803410), venetoclax (NSC766270), alisertib (NSC759677), olaparib (NSC753686), talazoparib (NSC767125), erdafitinib (NSC781556), ipatasertib (NSC767898), cabozantinib (NSC761068), nintedanib (NSC756659), abemaciclib (NSC768073), docetaxel (NSC628503), trametinib (NSC758246), and sapanisertib (NSC764658) were obtained from the National Cancer Institute (NCI) Developmental Therapeutics Program Chemical Repository. The FDA-approved anticancer drug set is available from the Developmental Therapeutics Program. […] The stock solutions were prepared in dimethyl sulfoxide (DMSO, Sigma-Aldrich, St. Louis, MO, cat. D2650) at 800-fold the tested concentration and stored at -70 degrees C prior to their use. All drugs and investigational agents were tested over a range starting from a high concentration at or near the clinical Cmax and decreasing in half-log increments. If the clinical Cmax for an agent had not been determined, the highest concentration tested was 10 microM.
Cell Culture. All cells were maintained in an incubator at 37 degrees C and 5% CO2 with 95% humidity. The PDC lines were cultured according to standard operating procedures established by the NCI PDMR (https://pdmr.cancer.gov/sops/default.htm). Briefly, all PDCs were thawed and cultured in Matrigel-coated flasks prepared with a working solution of 1X Ham's F-12 nutrient mix, without supplementation (Invitrogen, Waltham, MA, cat. 11765054), 100 U/mL penicillin-streptomycin (Invitrogen, cat. 15140122), and 2.5% Matrigel (Corning Inc., Corning, NY, cat. 354248) for the first three passages. All PDCs were cultured in complete DMEM/F-12 media containing advanced DMEM/F-12 (Invitrogen, cat. 12634028), 4.9% defined fetal bovine serum, heat inactivated (HyClone Laboratories Inc., Logan, UT, cat. SH30070.03HI), 389 ng/mL hydrocortisone (Sigma-Aldrich, cat. H4001), 9.7 ng/mL human EGF recombinant protein (Invitrogen, cat. PHG0313), 23.4 microg/mL adenine (Sigma-Aldrich, cat. A2786), 97.3 U/mL penicillin-streptomycin (Invitrogen, cat. 15140122), 1.9 mM L-glutamine (Invitrogen, cat. 25030081), and 9.7 microM Y-27632 dihydrochloride (Tocris Bioscience, Bristol, United Kingdom, cat. 1254). The PDCs were cultured in complete DMEM/F12 media without 9.7 microM Y-27632 dihydrochloride for at least two passages prior to the screen. The established cell line HOP-62 was cultured in RPMI 1640 medium, HEPES (Invitrogen, cat. 22400105) with 10% defined fetal bovine serum (HyClone Laboratories Inc., cat. SH30070.03) and 2 mM L-glutamine (Invitrogen, cat. 25030081). The pooled donor HUVEC were cultured in endothelial cell growth medium 2 (PromoCell, Heidelberg, Germany, cat. C-22011) and the hMSC were cultured in mesenchymal stem cell growth medium 2 (PromoCell, cat. C-28009). For all experiments, HUVEC and hMSC were used at passages </=5, while the malignant cell lines were used at passages </=15. […]
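Also: drug exposure lasted seven days after spheroids formed for three days.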
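For viability, T/C in this document: 100% = DMSO vehicle control viability.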

In the case of CNCc1ccccc1-c1csc(C(C)Nc2nc(C)nc3cc(OC)c(OC)cc23)c1 (stereo not drawn), the viability, T/C (compound 10 µM) is reported as 0.63% [middle of 16 runs], the IC50 (compound alone, run of 07/19/2021) is reported as 1.25 µM [middle of 5 runs] and the IC50 (compound alone, run of 07/26/2021) is reported as 4.92 µM [middle of 6 runs].

Work on CC(=O)OC12COC1CC(O)C1(C)C(=O)C(O)C3=C(C)C(OC(=O)C(O)C(NC(=O)OC(C)(C)C)c4ccccc4)CC(O)(C(OC(=O)c4ccccc4)C21)C3(C)C (stereo not drawn) + C=CC(=O)N1CCN(c2nc(=O)n(-c3c(C)ccnc3C(C)C)c3nc(-c4c(O)cccc4F)c(F)cc23)C(C)C1 yielded an IC50 (curve of first compound, second compound 0.1 µM) of under 10 nM, an IC50 (curve of first compound, second compound 0.316 µM) of under 10 nM and an IC50 (curve of first compound, second compound 1 µM) of under 10 nM. The IC50 (curve of first compound, second compound 3.16 µM) was under 10 nM, the IC50 (curve of first compound, second compound 10 µM) was under 10 nM and the viability, T/C (second compound 0.1 µM, first compound 0.01 µM) was 13.4%. The viability, T/C (second compound 0.1 µM, first compound 0.0316 µM) was 14.2%, the viability, T/C (second compound 0.1 µM, first compound 0.1 µM) was 14.2% and the viability, T/C (second compound 0.1 µM, first compound 0.316 µM) was 14.9%. The viability, T/C (second compound 0.1 µM, first compound 1 µM) was 18.2%, the viability, T/C (second compound 0.1 µM, first compound 3.16 µM) was 13.5% and the viability, T/C (second compound 0.316 µM, first compound 0.01 µM) was 13.7%. For the same molecule, the viability, T/C (second compound 0.316 µM, first compound 0.0316 µM) was 12%, the viability, T/C (second compound 0.316 µM, first compound 0.1 µM) was 12.1% and the viability, T/C (second compound 0.316 µM, first compound 0.316 µM) was 12.3%. It also gave a viability, T/C (second compound 0.316 µM, first compound 1 µM) of 16.3%, a viability, T/C (second compound 0.316 µM, first compound 3.16 µM) of 12.7% and a viability, T/C (second compound 1 µM, first compound 0.01 µM) of 12.6%. It also gave a viability, T/C (second compound 1 µM, first compound 0.0316 µM) of 10.2%, a viability, T/C (second compound 1 µM, first compound 0.1 µM) of 10.1% and a viability, T/C (second compound 1 µM, first compound 0.316 µM) of 12%. For the same molecule, the viability, T/C (second compound 1 µM, first compound 1 µM) was 12.8%, the viability, T/C (second compound 1 µM, first compound 3.16 µM) was 10.6% and the viability, T/C (second compound 3.16 µM, first compound 0.01 µM) was 10.7%. It also gave a viability, T/C (second compound 3.16 µM, first compound 0.0316 µM) of 9.62%, a viability, T/C (second compound 3.16 µM, first compound 0.1 µM) of 9.62% and a viability, T/C (second compound 3.16 µM, first compound 0.316 µM) of 9.52%. For the same molecule, the viability, T/C (second compound 3.16 µM, first compound 1 µM) was 13.2%, the viability, T/C (second compound 3.16 µM, first compound 3.16 µM) was 10.1% and the viability, T/C (second compound 10 µM, first compound 0.01 µM) was 13.7%. The viability, T/C (second compound 10 µM, first compound 0.0316 µM) was 14%, the viability, T/C (second compound 10 µM, first compound 0.1 µM) was 15.6% and the viability, T/C (second compound 10 µM, first compound 0.316 µM) was 14.4%. The viability, T/C (second compound 10 µM, first compound 1 µM) was 14.5% and the viability, T/C (second compound 10 µM, first compound 3.16 µM) was 12.1%.

Reference: PubChem BioAssay AID1963856 (Molecular Pharmacology Branch, DTP, NCI, 2024)
